Assay [1] deals with T1, beta-catenin/TCF4 engagement (Homo sapiens, UniProt P35222).
T1 construct: expressed in transfected cells; host or cells: HEK293
T1 sequence (P35222 1-781): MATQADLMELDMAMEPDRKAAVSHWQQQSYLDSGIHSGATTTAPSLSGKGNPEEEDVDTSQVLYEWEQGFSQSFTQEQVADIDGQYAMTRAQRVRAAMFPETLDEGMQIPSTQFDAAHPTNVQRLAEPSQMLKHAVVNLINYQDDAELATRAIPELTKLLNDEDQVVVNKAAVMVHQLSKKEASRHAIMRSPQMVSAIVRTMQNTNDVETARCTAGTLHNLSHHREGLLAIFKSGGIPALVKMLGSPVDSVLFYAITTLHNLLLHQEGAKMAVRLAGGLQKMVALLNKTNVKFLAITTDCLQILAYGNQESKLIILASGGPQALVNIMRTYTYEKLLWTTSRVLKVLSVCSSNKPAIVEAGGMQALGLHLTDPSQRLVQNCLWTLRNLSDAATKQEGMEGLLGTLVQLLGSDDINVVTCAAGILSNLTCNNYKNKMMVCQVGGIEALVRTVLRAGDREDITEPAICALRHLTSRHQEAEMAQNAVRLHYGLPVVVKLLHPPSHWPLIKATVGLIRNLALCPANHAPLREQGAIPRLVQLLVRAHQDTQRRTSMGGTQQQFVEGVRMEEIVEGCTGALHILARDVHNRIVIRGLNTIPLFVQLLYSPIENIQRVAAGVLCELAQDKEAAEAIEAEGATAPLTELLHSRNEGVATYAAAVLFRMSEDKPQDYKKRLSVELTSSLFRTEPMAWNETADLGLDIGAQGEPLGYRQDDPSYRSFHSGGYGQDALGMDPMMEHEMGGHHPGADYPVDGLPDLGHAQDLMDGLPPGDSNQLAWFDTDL
The assay is described as follows: Nano-BRET target engagement assay (B-cat-Halo & TCF4-Luc in HEK293 cells). In kind it is cell-based. The following applies: absolute IC50; read-out: NanoBRET Abs IC50. A general note: In BRET a luciferase serves as donor, and the signal depends on an acceptor being close.

Assay [2] deals with T2, full-length beta-Catenin (Uniprot ID P35222) (Homo sapiens, UniProt P35222).
T2 construct: 10 nM full-length beta-Catenin (Uniprot ID P35222)
T2 sequence (P35222 1-781): T1 sequence (P35222 1-781)
In words: Fluorescence polarization IC50 (beta-catenin / 5FAM-TCF4 10-53 competition). In kind it is binding. Particulars: fluorescence polarization; read-out: beta-Catenin FP IC50. (Polarisation of emitted light reports the rotation of a fluorescent probe.)

Each structure is given as a SMILES string.

As usually defined, the IC50 is the concentration that inhibits the measured activity by half.

Take `CC(=O)N1CCC[C@]12CC=CCCCC1(CCCC=CCCCOC(=O)N3CC[C@@](C(=O)N[C@@H](Cc4ccsc4)C(=O)N[C@@H](Cc4csc5ccccc45)C(=O)N[C@@H](CCC(N)=O)C(N)=O)(C3)NC(=O)[C@H](CC(C)C)NC(=O)[C@H](Cc3ccccc3)NC(=O)[C@H](C)NC(=O)[C@H](C)NC(=O)[C@H](Cc3c[nH]cn3)NC(=O)[C@H](CC(=O)O)NC1=O)NC(=O)[C@H](CC(C)(C)C)NC(=O)[C@H](CC(=O)O)NC2=O` (stereo partly drawn) [I-1796, Ac-PL3-Asp-Npg-B5-Asp-His-Ala-Ala-Phe-Leu-PyrS2-3Thi-BztA-Gln-NH2]: the IC50 in assay [1] was greater than 20000 nM; in assay [2], 22 nM.

Take `CC(=O)N1CCC[C@]12CC=CCCCC1(CCCC=CCCCOC(=O)N3CC[C@@](C(=O)N[C@@H](Cc4ccsc4)C(=O)N[C@@H](Cc4csc5ccccc45)C(=O)N[C@@H](CCC(=O)N4CCC(N5CCCCC5)CC4)C(N)=O)(C3)NC(=O)[C@H](CC(C)C)NC(=O)[C@H](Cc3ccccc3)NC(=O)[C@H](C)NC(=O)[C@H](C)NC(=O)[C@H](CN(CC(=O)O)CC(F)(F)F)NC(=O)[C@H](CC(=O)O)NC1=O)NC(=O)[C@H](CC(C)(C)C)NC(=O)[C@H](CC(=O)O)NC2=O` (stereo partly drawn) [I-1797, Ac-PL3-Asp-Npg-B5-Asp-TfeGA-Ala-Ala-Phe-Leu-PyrS2-3Thi-BztA-[4Pippip]GlnR-NH2]: the IC50 in assay [1] was 22500 nM; in assay [2], 10 nM.

Turning to `CC(=O)N1CCC[C@]12CC=CCCCC1(CCCC=CCCCOC(=O)N3CC[C@@](C(=O)N[C@@H](Cc4ccsc4)C(=O)N[C@@H](Cc4csc5ccccc45)C(=O)N[C@@H](CCC(=O)N4CCN(CCCN(C)C)CC4)C(N)=O)(C3)NC(=O)[C@H](CC(C)C)NC(=O)[C@H](Cc3ccccc3)NC(=O)[C@H](C)NC(=O)[C@H](C)NC(=O)[C@H](CN(CC(=O)O)CC(F)(F)F)NC(=O)[C@H](CC(=O)O)NC1=O)NC(=O)[C@H](CC(C)(C)C)NC(=O)[C@H](CC(=O)O)NC2=O` (stereo partly drawn) [I-1799, Ac-PL3-Asp-Npg-B5-Asp-TfeGA-Ala-Ala-Phe-Leu-PyrS2-3Thi-BztA-[Me2NPrPip]GlnR-NH2], the IC50 was 25800 nM in assay [1] and 8 nM in assay [2].

For the molecule `CC(=O)N1CCC[C@]12CC=CCCCC1(CCCC=CCCCOC(=O)N3CC[C@@](C(=O)N[C@@H](Cc4ccsc4)C(=O)N[C@@H](Cc4csc5ccccc45)C(=O)N[C@@H](CCC(=O)N4CCN(CCCN(C)C)CC4)C(N)=O)(C3)NC(=O)[C@H](CC(C)C)NC(=O)[C@H](Cc3ccccc3)NC(=O)[C@H](C)NC(=O)[C@H](C)NC(=O)[C@H](CN(CC(=O)O)CC(F)(F)F)NC(=O)[C@H](CC(=O)O)NC1=O)NC(=O)[C@H](CC(C)(C)C)NC(=O)[C@H](CC(=O)O)NC2=O` (stereo partly drawn) [I-1800, Ac-PL3-Asp-Npg-B5-Asp-TfeGA-Ala-Ala-Phe-Leu-PyrS2-3Thi-BztA-[Me2NPrPip]GlnR-NH2], the half-inhibitory concentration (IC50) in assay [1] was found to be 25200 nM; in assay [2], 13 nM.

With `CC(=O)N1CCC[C@]12CC=CCCCC1(CCCC=CCCCOC(=O)N3CC[C@@](C(=O)N[C@@H](Cc4ccsc4)C(=O)N[C@@H](Cc4csc5ccccc45)C(=O)N[C@@H](CCC(=O)N4CCC(N5CCN(C)CC5)CC4)C(N)=O)(C3)NC(=O)[C@H](CC(C)C)NC(=O)[C@H](Cc3ccccc3)NC(=O)[C@H](C)NC(=O)[C@H](C)NC(=O)[C@H](CN(CC(=O)O)CC(F)(F)F)NC(=O)[C@H](CC(=O)O)NC1=O)NC(=O)[C@H](CC(C)(C)C)NC(=O)[C@H](CC(=O)O)NC2=O` (stereo partly drawn) [I-1801, Ac-PL3-Asp-Npg-B5-Asp-TfeGA-Ala-Ala-Phe-Leu-PyrS2-3Thi-BztA-[4MePpzPip]GlnR-NH2], the IC50 in assay [1] was found to be 17500 nM; in assay [2], 7 nM.

With `CC(=O)N1CCC[C@]12CC=CCCCC1(CCCC=CCCCOC(=O)N3CC[C@@](C(=O)N[C@@H](Cc4ccsc4)C(=O)N[C@@H](Cc4csc5ccccc45)C(=O)N[C@@H](CCC(=O)N4CCC(N5CCN(C)CC5)CC4)C(N)=O)(C3)NC(=O)[C@H](CC(C)C)NC(=O)[C@H](Cc3ccccc3)NC(=O)[C@H](C)NC(=O)[C@H](C)NC(=O)[C@H](CN(CC(=O)O)CC(F)(F)F)NC(=O)[C@H](CC(=O)O)NC1=O)NC(=O)[C@H](CC(C)(C)C)NC(=O)[C@H](CC(=O)O)NC2=O` (stereo partly drawn) [I-1802, Ac-PL3-Asp-Npg-B5-Asp-TfeGA-Ala-Ala-Phe-Leu-PyrS2-3Thi-BztA-[4MePpzPip]GlnR-NH2], the IC50 in assay [1] came out at 25200 nM; in assay [2], 11 nM.

For the molecule `CC(=O)N1CCC[C@]12CC=CCCCC1(CCCC=CCCCOC(=O)N3CC[C@@](C(=O)N[C@@H](Cc4ccsc4)C(=O)N[C@@H](Cc4csc5ccccc45)C(=O)N[C@@H](CCC(=O)N4CCN(CC(F)(F)F)CC4)C(N)=O)(C3)NC(=O)[C@H](CC(C)C)NC(=O)[C@H](Cc3ccccc3)NC(=O)[C@H](C)NC(=O)[C@H](C)NC(=O)[C@H](CN(CC(=O)O)CC(F)(F)F)NC(=O)[C@H](CC(=O)O)NC1=O)NC(=O)[C@H](CC(C)(C)C)NC(=O)[C@H](CC(=O)O)NC2=O` (stereo partly drawn) [I-1803, Ac-PL3-Asp-Npg-B5-Asp-TfeGA-Ala-Ala-Phe-Leu-PyrS2-3Thi-BztA-[TfePpz]GlnR-NH2], the IC50 in assay [1] turned out to be 7400 nM; in assay [2] it was 20 nM.

On to `CC(=O)N1CCC[C@]12CC=CCCCC1(CCCC=CCCCOC(=O)N3CC[C@@](C(=O)N[C@@H](Cc4ccsc4)C(=O)N[C@@H](Cc4csc5ccccc45)C(=O)N[C@@H](CCC(=O)N4CC[C@@H](N(C)C)C4)C(N)=O)(C3)NC(=O)[C@H](CC(C)C)NC(=O)[C@H](Cc3ccccc3)NC(=O)[C@H](C)NC(=O)[C@H](C)NC(=O)[C@H](CN(CC(=O)O)CC(F)(F)F)NC(=O)[C@H](CC(=O)O)NC1=O)NC(=O)[C@H](CC(C)(C)C)NC(=O)[C@H](CC(=O)O)NC2=O` (stereo partly drawn) [I-1804, Ac-PL3-Asp-Npg-B5-Asp-TfeGA-Ala-Ala-Phe-Leu-PyrS2-3Thi-BztA-[RDMAPyr]GlnR-NH2], for which the half-maximal inhibitory concentration (IC50) in assay [1] came to 9400 nM; in assay [2], 8 nM.

On to `CC(=O)N1CCC[C@]12CC=CCCCC1(CCCC=CCCCOC(=O)N3CC[C@@](C(=O)N[C@@H](Cc4ccsc4)C(=O)N[C@@H](Cc4csc5ccccc45)C(=O)N[C@@H](CCC(=O)N4CC[C@@H](N(C)C)C4)C(N)=O)(C3)NC(=O)[C@H](CC(C)C)NC(=O)[C@H](Cc3ccccc3)NC(=O)[C@H](C)NC(=O)[C@H](C)NC(=O)[C@H](CN(CC(=O)O)CC(F)(F)F)NC(=O)[C@H](CC(=O)O)NC1=O)NC(=O)[C@H](CC(C)(C)C)NC(=O)[C@H](CC(=O)O)NC2=O` (stereo partly drawn) [I-1805, Ac-PL3-Asp-Npg-B5-Asp-TfeGA-Ala-Ala-Phe-Leu-PyrS2-3Thi-BztA-[RDMAPyr]GlnR-NH2], for which the IC50 in assay [1] came out at 9300 nM; in assay [2], 6 nM.

As to `CC(=O)N1CCC[C@]12CCCCCCC1(CCCCCCCCOC(=O)N3CC[C@@](C(=O)N[C@@H](Cc4ccsc4)C(=O)N[C@@H](Cc4csc5ccccc45)C(=O)N[C@@H](CCC(N)=O)C(N)=O)(C3)NC(=O)[C@H](CC(C)C)NC(=O)[C@H](Cc3ccccc3)NC(=O)[C@H](C)NC(=O)[C@H](C)NC(=O)[C@H](CC(=O)O)NC(=O)[C@H](CC(=O)O)NC1=O)NC(=O)[C@H](CC(C)(C)C)NC(=O)[C@H](CC(=O)O)NC2=O` (stereo partly drawn) [I-1808, Ac-PL3-Asp-Npg-B5-Asp-Asp-Ala-Ala-Phe-Leu-PyrS2-3Thi-BztA-Gln-NH2], the IC50 was found to be 14000 nM in assay [1] and 90 nM in assay [2].

For the molecule `CC(=O)N1CCC[C@]12CC=CCCCC1(CCCC=CCCOC(=O)N3CC[C@@](C(=O)N[C@@H](Cc4ccsc4)C(=O)N[C@@H](Cc4csc5ccccc45)C(=O)N[C@@H](CCC(N)=O)C(N)=O)(C3)NC(=O)[C@H](CC(N)=O)NC(=O)[C@H](Cc3ccccc3)NC(=O)[C@H](C)NC(=O)[C@H](C)NC(=O)[C@H](CC(=O)O)NC(=O)[C@H](CC(=O)O)NC1=O)NC(=O)[C@H](CC(C)(C)C)NC(=O)[C@H](CC(=O)O)NC2=O` (stereo partly drawn) [I-1813, Ac-PL3-Asp-Npg-B5-Asp-Asp-Ala-Ala-Phe-Asn-PyrS1-3Thi-BztA-Gln-NH2], the IC50 in assay [1] is greater than 20000 nM; in assay [2], 26 nM.

As for `CC(=O)N1CCC[C@]12CC=CCCCC1(CCCC=CCCOC(=O)N3CC[C@@](C(=O)N[C@@H](Cc4ccsc4)C(=O)N[C@@H](Cc4csc5ccccc45)C(=O)N[C@@H](CCC(N)=O)C(N)=O)(C3)NC(=O)[C@H](CC(C)C)NC(=O)[C@H](Cc3ccccc3)NC(=O)[C@H](C)NC(=O)[C@H](C)NC(=O)[C@H](CC(=O)O)NC(=O)[C@H](CC(=O)O)NC1=O)NC(=O)[C@H](CC(C)(C)C)NC(=O)[C@H](CC(=O)O)NC2=O` (stereo partly drawn) [I-1815, Ac-PL3-Asp-Npg-B5-Asp-Asp-Ala-Ala-Phe-Leu-PyrS1-3Thi-BztA-Gln-NH2], the 50% inhibitory concentration (IC50) is greater than 20000 nM in assay [1] and 46 nM in assay [2].

With `CC(=O)N1CCC[C@]12CC=CCCCC1(CCCC=CCOC(=O)N3CC[C@@](C(=O)N[C@@H](Cc4ccsc4)C(=O)N[C@@H](Cc4csc5ccccc45)C(=O)N[C@@H](CCC(N)=O)C(N)=O)(C3)NC(=O)[C@H](CC(C)C)NC(=O)[C@H](Cc3ccccc3)NC(=O)[C@H](C)NC(=O)[C@H](C)NC(=O)[C@H](CC(=O)O)NC(=O)[C@H](CC(=O)O)NC1=O)NC(=O)[C@H](CC(C)(C)C)NC(=O)[C@H](CC(=O)O)NC2=O` (stereo partly drawn) [I-1818, Ac-PL3-Asp-Npg-B5-Asp-Asp-Ala-Ala-Phe-Leu-PyrS-3Thi-BztA-Gln-NH2], the IC50 in assay [1] was greater than 20000 nM; in assay [2], 236 nM.
